Measurements published in patent US20260226020A1, “Nav 1.7 AND/OR Nav 1.8 BLOCKING HYDRAZIDES, PROCESSES FOR THE PREPARATION THEREOF, COMPOSITIONS, USES, METHODS OF TREATMENT USING SAME AND KITS” (Eurofarma Laboratórios S.A., priority 2023, published 2026).

What was measured:
[1] = target: T1, human sodium channels Nav 1.8 (Homo sapiens, UniProt Q9Y5Y9); test: Automated whole-cell voltage-clamp (ScreenPatch 384P) sodium current block in CHO cells expressing Nav 1.8; type: cell-based; conditions: CHO cells stably expressing human Nav 1.8; whole cell patch clamp, inactivation step -40 mV 8 s, test step 10 mV (TP1A), room temperature; mean where tested in two or more assays; read-out: Nav1.8 IC50
T1 construct: expressed in transfected cells
T1 sequence (Q9Y5Y9 whole entry): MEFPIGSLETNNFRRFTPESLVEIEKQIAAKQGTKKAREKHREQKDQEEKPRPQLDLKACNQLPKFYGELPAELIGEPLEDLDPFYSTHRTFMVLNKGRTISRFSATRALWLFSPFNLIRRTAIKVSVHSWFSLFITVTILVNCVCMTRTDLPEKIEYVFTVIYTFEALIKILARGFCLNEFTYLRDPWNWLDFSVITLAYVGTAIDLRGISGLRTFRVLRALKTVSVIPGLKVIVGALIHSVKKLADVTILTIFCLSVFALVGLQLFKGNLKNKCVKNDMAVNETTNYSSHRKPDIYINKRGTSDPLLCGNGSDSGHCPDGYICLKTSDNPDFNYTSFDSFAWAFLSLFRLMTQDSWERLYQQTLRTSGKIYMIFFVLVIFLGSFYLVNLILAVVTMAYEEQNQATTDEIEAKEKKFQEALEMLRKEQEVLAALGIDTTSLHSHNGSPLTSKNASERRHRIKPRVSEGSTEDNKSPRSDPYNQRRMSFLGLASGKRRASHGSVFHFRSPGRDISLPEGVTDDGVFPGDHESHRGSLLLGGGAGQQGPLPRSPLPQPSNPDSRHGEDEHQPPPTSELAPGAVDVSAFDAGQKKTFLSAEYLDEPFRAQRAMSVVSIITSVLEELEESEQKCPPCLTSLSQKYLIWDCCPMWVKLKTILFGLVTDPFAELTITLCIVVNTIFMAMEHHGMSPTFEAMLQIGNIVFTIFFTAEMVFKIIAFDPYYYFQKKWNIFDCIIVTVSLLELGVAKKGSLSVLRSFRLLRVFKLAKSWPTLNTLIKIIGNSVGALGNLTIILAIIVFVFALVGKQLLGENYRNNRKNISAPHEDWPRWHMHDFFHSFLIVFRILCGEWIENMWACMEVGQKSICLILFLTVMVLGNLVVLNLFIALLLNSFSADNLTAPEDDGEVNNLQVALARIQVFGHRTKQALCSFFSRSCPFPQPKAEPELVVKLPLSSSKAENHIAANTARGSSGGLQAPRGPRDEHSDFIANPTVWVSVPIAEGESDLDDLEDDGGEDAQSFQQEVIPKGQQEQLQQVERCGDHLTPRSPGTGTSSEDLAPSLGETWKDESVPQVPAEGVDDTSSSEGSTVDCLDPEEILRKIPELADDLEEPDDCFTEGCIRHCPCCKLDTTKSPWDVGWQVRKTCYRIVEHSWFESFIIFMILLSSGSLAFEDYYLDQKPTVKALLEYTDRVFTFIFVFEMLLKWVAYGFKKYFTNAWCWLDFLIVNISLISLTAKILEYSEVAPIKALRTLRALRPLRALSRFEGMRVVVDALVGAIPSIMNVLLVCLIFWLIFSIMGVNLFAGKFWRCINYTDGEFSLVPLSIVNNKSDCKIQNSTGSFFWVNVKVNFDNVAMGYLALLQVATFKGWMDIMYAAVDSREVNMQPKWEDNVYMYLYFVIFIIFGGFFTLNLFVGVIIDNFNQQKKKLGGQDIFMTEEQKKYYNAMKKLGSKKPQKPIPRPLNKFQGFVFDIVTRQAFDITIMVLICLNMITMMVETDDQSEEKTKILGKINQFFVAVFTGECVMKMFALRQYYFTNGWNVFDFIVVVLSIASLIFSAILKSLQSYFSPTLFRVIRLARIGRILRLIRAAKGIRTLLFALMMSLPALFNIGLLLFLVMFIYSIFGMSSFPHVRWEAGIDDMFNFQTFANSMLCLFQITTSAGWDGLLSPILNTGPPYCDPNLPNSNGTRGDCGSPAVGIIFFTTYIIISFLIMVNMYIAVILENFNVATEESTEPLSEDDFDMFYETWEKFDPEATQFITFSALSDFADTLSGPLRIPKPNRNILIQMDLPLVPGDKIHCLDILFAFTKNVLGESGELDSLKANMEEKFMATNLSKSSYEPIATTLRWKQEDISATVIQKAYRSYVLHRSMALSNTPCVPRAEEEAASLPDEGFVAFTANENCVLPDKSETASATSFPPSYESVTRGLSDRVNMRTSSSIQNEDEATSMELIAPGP
Procedure: (§1) Biological assays were performed on Chinese hamster ovary (CHO) cells that express human sodium channels Nav 1.8 or Nav 1.7 in a stable manner.
(§2) The experimental protocol voltage-clamp using the whole cell configuration was established on the automated ScreenPatch© 384P platform (SP384PE, Nanion Technologies, Livingston, NJ) and the results were recorded with a Nanion 384-well Patch Clamp chip (NPC) (Nanion Technologies, Livingston, NJ).
(§3) Formula I compounds were diluted in eight concentrations in the extracellular solution composed of saline saline solution, buffered with HEPES (mM): NaCl, 137; KCl, 4; CaCl2, 3.8; MgCl2, 1; HEPES, 10; Glucose, 10; pH 7.4. The […], 50; CsF, 90; MgCl2, 5; EGTA, 5; HEPES, 10; pH 7.2. The duration of exposure of each compound with cells expressing Nav 1.7 or Nav 1.8 was at least five minutes, and the assays were performed at room temperature.
(§4) The measurements of the sodium currents of Nav 1.8 and Nav 1.7 were obtained using the voltage protocol described below.
(§5) A holding voltage of −100 mV was established followed by an inactivation voltage step at −40 mV for 8 seconds, followed by a step of −100 mV for 20 ms, followed by a 20 ms step for 10 mV for Nav 1.8 or 0 mV for Nav 1.7 (TP1A) before returning to the holding voltage of −100 mV.
(§6) The protocol was repeated at a frequency of 0.05 Hz and the amplitude of the current was quantified throughout the recording of the TP1A phase. The variation in the amplitude of the peak current was evaluated according to the formula described below, after exposing the cells expressing the channels to each concentration of the different compounds:
(§7) wherein ITP1A,basal and ITP1A,molecule represent the peaks of sodium current input into TP1A before exposure to the compound and in the presence of the compound, respectively.
(§8) The decrease in the amplitude of the peak current, after the exposure of the cells to the compounds, was used to calculate the percentage of relative blockage of the channels in relation to the positive control according to the formula below: […]
(§9) wherein % V and % CP represent the means of the values of current inhibition with a vehicle (DMSO) and positive controls, respectively. The sodium currents of the positive control were considered as 100%.
(§10) wherein [Test] represents the concentration of the molecule evaluated, CI50 is the concentration of the compound that generates half of the maximum inhibition, N is the Hill coefficient, and % Block′ is the percentage of sodium channel current (Nav 1.8 and Nav 1.7) blocked at each concentration of the molecule evaluated. Data were obtained by nonlinear regression (nonlinear least squares) with XLfit for Excel (Microsoft, Redmond, WA).
(§11) The compounds were tested in at least one assay to obtain the value of CI50. For compounds that were tested in two or more assays, the results are described as the means of the CI50 values.

[2] = target: T2, human sodium channels Nav 1.7 (Homo sapiens, UniProt Q15858); test: Automated whole-cell voltage-clamp (ScreenPatch 384P) sodium current block in CHO cells expressing Nav 1.7; type: cell-based; conditions: CHO cells stably expressing human Nav 1.7; whole cell patch clamp, inactivation step -40 mV 8 s, test step 0 mV (TP1A), room temperature; mean where tested in two or more assays; read-out: Nav1.7 IC50
T2 construct: expressed in transfected cells
T2 sequence (Q15858 whole entry): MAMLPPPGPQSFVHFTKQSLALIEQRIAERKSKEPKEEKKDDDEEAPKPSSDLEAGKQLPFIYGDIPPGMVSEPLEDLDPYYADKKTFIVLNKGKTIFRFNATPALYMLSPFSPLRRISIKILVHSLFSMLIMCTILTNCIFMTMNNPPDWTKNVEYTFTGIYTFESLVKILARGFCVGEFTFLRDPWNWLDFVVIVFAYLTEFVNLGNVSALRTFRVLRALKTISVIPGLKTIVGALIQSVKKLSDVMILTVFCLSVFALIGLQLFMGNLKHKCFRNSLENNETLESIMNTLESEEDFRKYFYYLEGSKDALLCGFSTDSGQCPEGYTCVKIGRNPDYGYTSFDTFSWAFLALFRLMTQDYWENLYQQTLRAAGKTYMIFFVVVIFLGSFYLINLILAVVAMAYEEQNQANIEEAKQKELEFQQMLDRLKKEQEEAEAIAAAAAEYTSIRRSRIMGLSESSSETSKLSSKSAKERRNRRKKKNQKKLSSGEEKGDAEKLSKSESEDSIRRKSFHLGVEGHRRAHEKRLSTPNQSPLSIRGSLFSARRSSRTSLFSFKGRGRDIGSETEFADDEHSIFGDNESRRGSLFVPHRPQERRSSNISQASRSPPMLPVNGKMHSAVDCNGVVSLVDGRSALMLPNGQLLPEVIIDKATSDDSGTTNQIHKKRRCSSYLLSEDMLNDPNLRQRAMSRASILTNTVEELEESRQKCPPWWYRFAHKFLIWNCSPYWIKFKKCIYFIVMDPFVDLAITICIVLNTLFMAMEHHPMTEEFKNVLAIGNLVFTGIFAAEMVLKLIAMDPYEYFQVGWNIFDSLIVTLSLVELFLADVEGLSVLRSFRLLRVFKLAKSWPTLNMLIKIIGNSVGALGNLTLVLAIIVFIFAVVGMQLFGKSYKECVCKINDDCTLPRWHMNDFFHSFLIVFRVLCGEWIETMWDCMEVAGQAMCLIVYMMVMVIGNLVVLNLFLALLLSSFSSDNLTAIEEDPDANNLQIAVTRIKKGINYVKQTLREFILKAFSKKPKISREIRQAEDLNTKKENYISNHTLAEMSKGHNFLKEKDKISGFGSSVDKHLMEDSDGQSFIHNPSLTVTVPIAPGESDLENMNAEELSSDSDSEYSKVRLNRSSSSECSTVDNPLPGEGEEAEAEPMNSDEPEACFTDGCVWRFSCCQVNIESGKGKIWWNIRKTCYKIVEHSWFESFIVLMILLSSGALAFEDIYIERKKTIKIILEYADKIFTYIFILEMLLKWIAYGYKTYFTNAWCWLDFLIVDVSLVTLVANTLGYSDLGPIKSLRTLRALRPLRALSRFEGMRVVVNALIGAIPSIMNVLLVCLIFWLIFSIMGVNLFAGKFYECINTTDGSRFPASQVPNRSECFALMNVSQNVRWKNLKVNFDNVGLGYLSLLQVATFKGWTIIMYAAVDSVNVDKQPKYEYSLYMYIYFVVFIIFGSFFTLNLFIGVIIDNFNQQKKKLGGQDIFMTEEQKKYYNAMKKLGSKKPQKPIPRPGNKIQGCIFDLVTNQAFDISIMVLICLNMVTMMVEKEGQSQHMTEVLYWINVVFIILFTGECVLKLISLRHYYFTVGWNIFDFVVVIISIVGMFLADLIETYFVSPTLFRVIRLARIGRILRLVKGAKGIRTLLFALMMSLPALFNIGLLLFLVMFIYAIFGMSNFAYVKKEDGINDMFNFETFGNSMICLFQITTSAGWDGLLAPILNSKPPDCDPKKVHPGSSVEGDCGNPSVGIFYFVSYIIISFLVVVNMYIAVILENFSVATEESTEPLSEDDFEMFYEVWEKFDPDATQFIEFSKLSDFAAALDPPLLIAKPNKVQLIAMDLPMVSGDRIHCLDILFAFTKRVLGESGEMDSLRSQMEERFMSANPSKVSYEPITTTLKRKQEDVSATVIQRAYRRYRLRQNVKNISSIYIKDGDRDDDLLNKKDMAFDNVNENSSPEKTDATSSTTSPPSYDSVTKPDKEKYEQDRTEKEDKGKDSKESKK
Procedure: as §1, §2, §3, §4, §5, §6, §7, §8, §9, §10, §11

IC50 [1]	IC50 [2]	Structure (SMILES)
> 1 µM	> 1 µM	O=C(NNCc1ccc(Cl)cc1)c1cncc(-c2ccc(Cl)cc2)n1 [Compound 5, N′-(4-chlorobenzyl)-6-(4-chlorophenyl)pyrazine-2-carbohydrazide]
0.5 to 1 µM	> 1 µM	CCOc1ccc(-c2cncc(C(=O)NNCc3cc(OC)cc(OC)c3)n2)cn1 [Compound 29, N′-(3,5-dimethoxybenzyl)-6-(6-ethoxypyridin-3-yl)pyrazine-2-carbohydrazide]
> 1 µM	> 1 µM	COc1ccc(-c2cncc(C(=O)NNCc3ccc(Cl)cc3)n2)cc1 [Compound 2, N′-(4-chlorobenzyl)-6-(4-methoxyphenyl)pyrazine-2-carbohydrazide]
> 1 µM	> 1 µM	CCOc1ccc(-c2cccc(C(=O)NNCc3ccccc3F)n2)cc1 [Compound 50, 6-(4-ethoxyphenyl)-N′-(2-fluorobenzyl)picolinohydrazide]
< 0.5 µM	> 1 µM	CCOc1ccc(-c2cncc(C(=O)NNCc3cc(OC)cnc3C)n2)cn1 [Compound 34, 6-(6-ethoxypyridin-3-yl)-N′-((5-methoxy-2-methylpyridin-3-yl)methyl)pyrazine-2-carbohydrazide]
< 0.5 µM	> 1 µM	CCOc1ccc(-c2cncc(C(=O)NNCc3cc(OC)ccc3F)n2)cn1 [Compound 32, 6-(6-ethoxypyridin-3-yl)-N′-(2-fluoro-5-methoxybenzyl)pyrazine-2-carbohydrazide]
> 1 µM	> 1 µM	CCOc1ccc(-c2cncc(C(=O)NNCc3cc(OC)cnc3F)n2)cn1 [Compound 31, 6-(6-ethoxypyridin-3-yl)-N′-((2-fluoro-5-methoxypyridin-3-yl)methyl)pyrazine-2-carbohydrazide]
> 1 µM	> 1 µM	CCOc1ccc(-c2cnnc(C(=O)NNCc3ccccc3F)c2)cc1 [Compound 47, 5-(4-ethoxyphenyl)-N′-(2-fluorobenzyl)pyridazine-3-carbohydrazide]
> 1 µM	> 1 µM	CCOc1ccc(-c2cncc(C(=O)NN(C)Cc3cc(OC)cc(OC)c3)n2)cc1 [Compound 17, N′-(3,5-dimethoxybenzyl)-6-(4-ethoxyphenyl)-N′-methylpyrazine-2-carbohydrazide]
< 0.5 µM	> 1 µM	CCOc1ccc(-c2cncc(C(=O)NNCc3cccc(OC)c3)n2)cn1 [Compound 30, 6-(6-ethoxypyridin-3-yl)-N′-(3-methoxybenzyl)pyrazine-2-carbohydrazide]
